Here are results for 29 molecules from patent US12065436B2, “Cardiac sarcomere inhibitors” (Cytokinetics, Inc., priority 2018, dated 2024).

pIC50: −log10 of the molar value. Where only a bound is given, the exact number is not on record here.

A word on the pIC50: it is the IC50 on a negative log10 scale, so that one unit is a factor of ten.

The target in the assay is bovine cardiac myofibrils (full-length cardiac myosin ATPase in the native sarcomere) (Bos taurus (Bovine), UniProt Q9BE39). The assay can be described thus: Skinned bovine cardiac myofibril ATPase assay (PK/LDH-coupled). The settings on record: Ca2+ activating to 75% of maximal rate; for CDMF75 IC15: concentration giving 15% inhibition; for pIC50: read-out: CDMF75 IC50. The format is biochemical. The essentials: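 Triton-skinned bovine left-ventricle myofibrils (1 mg/mL) in PM 12 buffer (12 mM PIPES, 2 mM MgCl2, pH 6.8) with 50 μM ATP, 0.6 mM EGTA and CaCl2 set for 50% or 75% activation. Steady-state ATPase inhibition followed by PK/LDH-coupled NADH oxidation at 340 nm.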
bovine cardiac myofibrils (full-length cardiac myosin ATPase in the native sarcomere), sequence (Q9BE39 whole entry): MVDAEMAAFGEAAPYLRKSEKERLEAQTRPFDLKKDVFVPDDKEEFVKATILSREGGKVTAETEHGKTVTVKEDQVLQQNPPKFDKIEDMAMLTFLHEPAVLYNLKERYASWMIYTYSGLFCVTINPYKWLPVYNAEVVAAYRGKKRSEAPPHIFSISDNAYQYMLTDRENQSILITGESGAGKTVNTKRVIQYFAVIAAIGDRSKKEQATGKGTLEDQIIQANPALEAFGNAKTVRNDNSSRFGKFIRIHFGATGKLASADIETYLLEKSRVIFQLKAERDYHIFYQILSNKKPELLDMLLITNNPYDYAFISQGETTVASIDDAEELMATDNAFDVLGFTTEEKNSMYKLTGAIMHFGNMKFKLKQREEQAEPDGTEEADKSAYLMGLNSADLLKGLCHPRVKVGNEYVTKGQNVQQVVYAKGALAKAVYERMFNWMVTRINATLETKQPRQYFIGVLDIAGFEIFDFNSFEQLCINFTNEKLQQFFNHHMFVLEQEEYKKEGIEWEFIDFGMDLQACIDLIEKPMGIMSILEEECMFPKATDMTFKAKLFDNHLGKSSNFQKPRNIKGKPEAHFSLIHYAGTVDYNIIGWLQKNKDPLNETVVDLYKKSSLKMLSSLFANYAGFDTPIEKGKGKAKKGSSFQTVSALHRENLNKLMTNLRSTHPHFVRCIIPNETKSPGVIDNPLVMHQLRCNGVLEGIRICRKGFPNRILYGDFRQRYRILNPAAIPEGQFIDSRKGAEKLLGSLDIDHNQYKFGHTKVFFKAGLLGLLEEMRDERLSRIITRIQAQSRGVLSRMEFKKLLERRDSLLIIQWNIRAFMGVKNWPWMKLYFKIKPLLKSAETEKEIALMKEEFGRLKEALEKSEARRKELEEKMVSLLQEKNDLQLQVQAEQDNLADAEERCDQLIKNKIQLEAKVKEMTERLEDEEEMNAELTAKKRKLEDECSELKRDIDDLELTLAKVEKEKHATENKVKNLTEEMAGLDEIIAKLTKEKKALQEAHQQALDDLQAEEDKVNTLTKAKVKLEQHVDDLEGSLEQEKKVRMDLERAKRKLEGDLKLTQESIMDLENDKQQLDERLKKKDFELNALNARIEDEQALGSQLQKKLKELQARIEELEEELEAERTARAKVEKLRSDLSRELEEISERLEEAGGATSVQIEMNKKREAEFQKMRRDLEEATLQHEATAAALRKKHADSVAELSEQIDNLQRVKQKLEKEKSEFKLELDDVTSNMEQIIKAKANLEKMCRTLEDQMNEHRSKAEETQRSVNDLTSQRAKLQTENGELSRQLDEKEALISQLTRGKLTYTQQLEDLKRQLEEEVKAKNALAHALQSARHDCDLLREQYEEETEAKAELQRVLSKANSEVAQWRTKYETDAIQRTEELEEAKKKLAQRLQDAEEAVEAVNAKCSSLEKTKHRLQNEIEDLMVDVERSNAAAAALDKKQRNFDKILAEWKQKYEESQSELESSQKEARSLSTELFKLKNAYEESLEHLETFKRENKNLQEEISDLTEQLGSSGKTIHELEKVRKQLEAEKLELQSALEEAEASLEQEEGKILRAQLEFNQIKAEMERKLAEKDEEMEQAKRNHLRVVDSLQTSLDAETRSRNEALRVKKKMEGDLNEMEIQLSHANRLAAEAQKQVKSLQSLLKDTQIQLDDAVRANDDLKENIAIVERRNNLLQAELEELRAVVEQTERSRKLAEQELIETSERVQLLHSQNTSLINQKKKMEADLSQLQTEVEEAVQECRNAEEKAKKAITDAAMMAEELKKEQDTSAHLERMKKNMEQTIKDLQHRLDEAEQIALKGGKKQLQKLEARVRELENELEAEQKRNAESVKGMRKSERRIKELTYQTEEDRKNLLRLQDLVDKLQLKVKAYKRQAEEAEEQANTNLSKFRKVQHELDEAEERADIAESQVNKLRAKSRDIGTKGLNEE
bovine cardiac myofibrils (full-length cardiac myosin ATPase in the native sarcomere), sequence (P85100 whole entry partner): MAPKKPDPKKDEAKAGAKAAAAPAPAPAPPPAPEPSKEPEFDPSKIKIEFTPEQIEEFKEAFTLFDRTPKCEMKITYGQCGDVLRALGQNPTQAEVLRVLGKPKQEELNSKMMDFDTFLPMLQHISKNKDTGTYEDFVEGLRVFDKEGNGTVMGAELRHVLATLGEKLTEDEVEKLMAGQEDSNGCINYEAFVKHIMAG
bovine cardiac myofibrils (full-length cardiac myosin ATPase in the native sarcomere), sequence (Q3SZE5 whole entry partner): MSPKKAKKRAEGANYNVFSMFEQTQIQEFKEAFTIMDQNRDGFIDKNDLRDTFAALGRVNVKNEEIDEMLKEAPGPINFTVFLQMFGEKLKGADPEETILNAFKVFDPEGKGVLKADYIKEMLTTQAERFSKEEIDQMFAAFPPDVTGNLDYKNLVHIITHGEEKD

`Cc1nc(-c2ccc3c(c2)CC[C@H]3NC(=O)c2cccc([C@@H](C)O)c2)no1` [Compound 726, 3-((R)-1-hydroxyethyl)-N-((R)-5-(5-methyl-1,2,4-oxadiazol-3-yl)-2,3-dihydro-1H-inden-1-yl)benzamide]: the “CDMF75 IC15” value was 1.2 µM and the pIC50 was 5.22.
On the same counts, the results for `Cc1n[nH]cc1C(=O)N[C@@H]1CCc2cc(-c3noc(C(F)F)n3)ccc21` [Compound 71, (R)-N-(5-(5-(difluoromethyl)-1,2,4-oxadiazol-3-yl)-2,3-dihydro-1H-inden-1-yl)-3-methyl-1H-pyrazole-4-carboxamide] are 0.4 µM and 5.92.
On the same counts, the results for `Cc1ncc(C(=O)N[C@@H]2CCc3cc(-c4noc(C(F)F)n4)ccc32)s1` [Compound 676, (R)-N-(5-(5-(difluoromethyl)-1,2,4-oxadiazol-3-yl)-2,3-dihydro-1H-inden-1-yl)-2-methylthiazole-5-carboxamide] are 0.5 µM and 5.74.
Regarding `CC(C)C(=O)N[C@@H]1CCc2cc(-c3noc(C(F)F)n3)ccc21` [Compound 284, (R)-N-(5-(5-(difluoromethyl)-1,2,4-oxadiazol-3-yl)-2,3-dihydro-1H-inden-1-yl)isobutyramide], the “CDMF75 IC15” value turned out to be 38.5 µM and the pIC50 is less than 4.41.
Consider `CCc1nc(-c2ccc3c(c2)CC[C@H]3NC(=O)Cc2ccccc2)no1` [Compound 591, (R)-N-(5-(5-ethyl-1,2,4-oxadiazol-3-yl)-2,3-dihydro-1H-inden-1-yl)-2-phenylacetamide], for which the “CDMF75 IC15” value was determined as 4.4 µM and the pIC50 is 5.01.
For `COC(=O)Cc1nc(-c2ccc3c(c2)CC[C@H]3NC(=O)c2cnn(C)c2)no1` [Compound 544, methyl 2-(3-{(1R)-1-[(1-methylpyrazol-4-yl)carbonylamino]indan-5-yl}-1,2,4-oxadiazol-5-yl)acetate], the “CDMF75 IC15” value was found to be 34.9 µM and the pIC50 is 4.41.
For `O=C(NC1CCC1)N[C@@H]1CCc2cc(-c3noc(C(F)F)n3)ccc21` [Compound 297, (R)-1-cyclobutyl-3-(5-(5-(difluoromethyl)-1,2,4-oxadiazol-3-yl)-2,3-dihydro-1H-inden-1-yl)urea] the same measures were 39.2 µM and less than 4.41.
On to `Cn1nnc(C(=O)N[C@@H]2COc3cc(-c4noc(C5CC5)n4)ccc32)n1` [Compound 235, (S)-N-(6-(5-cyclopropyl-1,2,4-oxadiazol-3-yl)-2,3-dihydrobenzofuran-3-yl)-2-methyl-2H-tetrazole-5-carboxamide], for which the “CDMF75 IC15” value came to 1.2 µM and the pIC50 is 5.32.
As to `[2H]C([2H])([2H])c1nc(-c2ccc3c(c2)OC[C@H]3NC(=O)c2cn(C)nc2C)no1` [Compound 270, (S)-1,3-dimethyl-N-(6-(5-(methyl-d3)-1,2,4-oxadiazol-3-yl)-2,3-dihydrobenzofuran-3-yl)-1H-pyrazole-4-carboxamide], the “CDMF75 IC15” value came out at 0.9 µM and the pIC50 is 5.51.
For `Cc1cc(C(=O)NC2CCc3cc(-c4nc(C)co4)ccc32)ccn1` (stereo not shown) [Compound 173, 2-methyl-N-(5-(4-methyloxazol-2-yl)-2,3-dihydro-1H-inden-1-yl)isonicotinamide] the same measures were 39.2 µM and less than 4.41.
On the same counts, the results for `Cc1cccnc1C(=O)NC1CCc2cc(-c3noc(C(F)F)n3)ccc21` (stereo not shown) [Compound 58, N-(5-(5-(difluoromethyl)-1,2,4-oxadiazol-3-yl)-2,3-dihydro-1H-inden-1-yl)-3-methylpicolinamide] are 4.8 µM and 4.68.
As for `COCc1nc(-c2ccc3c(c2)CCC3NC(=O)c2cn(C)nc2C)no1` (stereo not shown) [Compound 76, N-(5-(5-(methoxymethyl)-1,2,4-oxadiazol-3-yl)-2,3-dihydro-1H-inden-1-yl)-1,3-dimethyl-1H-pyrazole-4-carboxamide], the “CDMF75 IC15” value is 1.7 µM and the pIC50 is 5.21.
For `CC(=O)N[C@@H]1CCc2cc(-c3noc(C4CCC4)n3)ccc21` [Compound 406, (R)-N-(5-(5-cyclobutyl-1,2,4-oxadiazol-3-yl)-2,3-dihydro-1H-inden-1-yl)acetamide] the same measures were 1.9 µM and 5.11.
For `CCc1nc(-c2ccc3c(c2)CC[C@H]3NC(=O)c2cnn(C(C)C(=O)O)c2)no1` (stereo partly drawn) [Compound 531, 2-(4-(((R)-5-(5-ethyl-1,2,4-oxadiazol-3-yl)-2,3-dihydro-1H-inden-1-yl)carbamoyl)-1H-pyrazol-1-yl)propanoic acid] the same measures were 4.1 µM and 4.60.
For `Cc1cc(C(=O)N[C@@H]2COc3cc(-c4noc(C(F)F)n4)ccc32)n(C)n1` [Compound 191, (S)-N-(6-(5-(difluoromethyl)-1,2,4-oxadiazol-3-yl)-2,3-dihydrobenzofuran-3-yl)-1,3-dimethyl-1H-pyrazole-5-carboxamide] the same measures were 0.3 µM and 6.05.
For the molecule `CCc1nc(-c2ccc3c(c2)CC[C@H]3NC(=O)c2cnn(C[C@@H](O)CO)c2)no1` [Compound 539, N-[(1R)-5-(5-ethyl(1,2,4-oxadiazol-3-yl))indanyl][1-((2R)-2,3-dihydroxypropyl)pyrazol-4-yl]carboxamide], the “CDMF75 IC15” value worked out at 1.3 µM and the pIC50 was 5.22.
On the same counts, the results for `[2H]C([2H])([2H])c1nc(-c2ccc3c(c2)OC[C@H]3NC(=O)c2oc(C)nc2C)no1` [Compound 268, (S)-2,4-dimethyl-N-(6-(5-(methyl-d3)-1,2,4-oxadiazol-3-yl)-2,3-dihydrobenzofuran-3-yl)oxazole-5-carboxamide] are 1.9 µM and 5.29.
As for `Cc1nc(-c2ccc3c(c2)CCC3NC(=O)Nc2ccncc2)no1` (stereo not shown) [Compound 85, 1-(5-(5-methyl-1,2,4-oxadiazol-3-yl)-2,3-dihydro-1H-inden-1-yl)-3-(pyridin-4-yl)urea], the “CDMF75 IC15” value was determined as 5.5 µM and the pIC50 is 4.62.
As for `Cc1nc(-c2ccc3c(c2)OCC3NC(=O)c2cnn(C)c2)no1` (stereo not shown) [Compound 212, 1-methyl-N-(6-(5-methyl-1,2,4-oxadiazol-3-yl)-2,3-dihydrobenzofuran-3-yl)-1H-pyrazole-4-carboxamide], the “CDMF75 IC15” value stood at 1.7 µM and the pIC50 was 5.22.
On the same counts, the results for `C=Cc1cc(C(=O)N[C@@H]2CCc3cc(-c4noc(CC)n4)ccc32)ccn1` [Compound 655, (R)-N-(5-(5-ethyl-1,2,4-oxadiazol-3-yl)-2,3-dihydro-1H-inden-1-yl)-2-vinylisonicotinamide] are 0.6 µM and 5.72.
For `COCCc1nc(-c2ccc3c(c2)CC[C@H]3NC(=O)c2cnn(C)c2)no1` [Compound 546, N-{(1R)-5-[5-(2-methoxyethyl)(1,2,4-oxadiazol-3-yl)]indanyl}(1-methylpyrazol-4-yl)carboxamide] the same measures were 15.5 µM and 4.41.
Consider `CCOC(=O)C(C)c1nc(-c2ccc3c(c2)CC[C@H]3NC(=O)c2nnn(C)n2)no1` (stereo partly drawn) [Compound 504, ethyl 2-(3-((R)-1-(2-methyl-2H-tetrazole-5-carboxamido)-2,3-dihydro-1H-inden-5-yl)-1,2,4-oxadiazol-5-yl)propanoate], for which the “CDMF75 IC15” value is 4.4 µM and the pIC50 is 4.78.
For `Cc1cc(C(=O)N[C@@H]2CCc3cc(-c4nc(C)no4)ccc32)n(C)n1` [Compound 194, (R)-1,3-dimethyl-N-(5-(3-methyl-1,2,4-oxadiazol-5-yl)-2,3-dihydro-1H-inden-1-yl)-1H-pyrazole-5-carboxamide] the same measures were 0.7 µM and 5.59.
On the same counts, the results for `CCc1nc(-c2ccc3c(c2)OC[C@H]3NC(=O)N2CC[C@@H](O)C2)no1` [Compound 740, (R)-N-((S)-6-(5-ethyl-1,2,4-oxadiazol-3-yl)-2,3-dihydrobenzofuran-3-yl)-3-hydroxypyrrolidine-1-carboxamide] are 1.9 µM and 5.16.
For `CCc1cc(-c2ccc3c(c2)OC[C@H]3NC(=O)c2cnn(C)c2)no1` [Compound 423, (S)—N-(6-(5-ethylisoxazol-3-yl)-2,3-dihydrobenzofuran-3-yl)-1-methyl-1H-pyrazole-4-carboxamide] the same measures were 0.3 µM and 5.92.
`Cc1nc(-c2ccc3c(c2)OCC3NC(=O)c2cnc(C)o2)no1` (stereo not shown) [Compound 166, 2-methyl-N-(6-(5-methyl-1,2,4-oxadiazol-3-yl)-2,3-dihydrobenzofuran-3-yl)oxazole-5-carboxamide]: the “CDMF75 IC15” value is 2.0 µM and the pIC50 was 5.15.
Take `CCc1nc(-c2ccc3c(c2)OC[C@H]3NC(=O)c2cnc(C)o2)no1` [Compound 464, (S)-N-(6-(5-ethyl-1,2,4-oxadiazol-3-yl)-2,3-dihydrobenzofuran-3-yl)-2-methyloxazole-5-carboxamide]: the “CDMF75 IC15” value came to 0.4 µM and the negative logarithm of the IC50 (pIC50) is 5.85.
`Cc1noc(-c2ccc3c(c2)OC[C@H]3NC(=O)c2cnn(C)c2)n1` [Compound 313, (S)-1-methyl-N-(6-(3-methyl-1,2,4-oxadiazol-5-yl)-2,3-dihydrobenzofuran-3-yl)-1H-pyrazole-4-carboxamide]: the “CDMF75 IC15” value is 1.6 µM and the negative-log IC50 (pIC50) was 5.19.
`Cc1cncc(-c2ccc3c(c2)CC[C@H]3NC(=O)c2ccnn2C)c1` [Compound 376, (R)-1-methyl-N-(5-(5-methylpyridin-3-yl)-2,3-dihydro-1H-inden-1-yl)-1H-pyrazole-5-carboxamide]: the “CDMF75 IC15” value is 3.9 µM and the pIC50 is 4.73.
